The source made the active and inactive calls. The rule behind the calls is not given here.
How the values were obtained:
Homo sapiens [1] = species: Homo sapiens; assay: Inhibition of casein kinase-2 in human pulmonary smooth muscle cells assessed as reduction in Nkx2-5 nuclear translocation
[2] = Effect on Nkx2-5 cytosolic expression in human pulmonary smooth muscle cells; type: ADME; conditions: cytosol
Mus musculus [3] = assay: Inhibition of right ventricular systolic pressure increase in […] mouse hypoxia/Sugen pre-clinical model of pulmonary hypertension at 80 mg/kg dosed daily for 20 days starting immediately post experimental initiation; type: functional, organism-based
Homo sapiens [4] = species: Homo sapiens; assay: Inhibition of de-differentiation of human pulmonary smooth muscle cells assessed as reduction in contractile to synthetic forms change; type: functional
Homo sapiens [5] = species: Homo sapiens; assay: Inhibition of casein kinase-2/Nkx2-5 in human pulmonary smooth muscle cells assessed as down-regulation of COL1 protein expression at 1 nM by Western blot analysis
Homo sapiens [6] = species: Homo sapiens; assay: Inhibition of casein kinase-2/Nkx2-5 in human pulmonary smooth muscle cells assessed as down-regulation of COL1 protein expression at 10 nM by Western blot analysis
Homo sapiens [7] = species: Homo sapiens; assay: Inhibition of casein kinase-2/Nkx2-5 in human pulmonary smooth muscle cells assessed as down-regulation of CCN2 protein expression at 1 nM by Western blot analysis
Homo sapiens [8] = species: Homo sapiens; assay: Inhibition of casein kinase-2/Nkx2-5 in human pulmonary smooth muscle cells assessed as down-regulation of CCN2 protein expression at 10 nM by Western blot analysis
Homo sapiens [9] = species: Homo sapiens; assay: Inhibition of casein kinase-2/Nkx2-5 in human pulmonary smooth muscle cells assessed as up-regulation of ACTA2 protein expression at 1 nM by Western blot analysis
Homo sapiens [10] = species: Homo sapiens; assay: Inhibition of casein kinase-2/Nkx2-5 in human pulmonary smooth muscle cells assessed as up-regulation of ACTA2 protein expression at 10 nM by Western blot analysis
Homo sapiens [11] = species: Homo sapiens; assay: Inhibition of casein kinase-2/Nkx2-5 in human pulmonary smooth muscle cells assessed as up-regulation of MYH11 protein expression at 1 nM by Western blot analysis
Homo sapiens [12] = species: Homo sapiens; assay: Inhibition of casein kinase-2/Nkx2-5 in human pulmonary smooth muscle cells assessed as up-regulation of MYH11 protein expression at 10 nM by Western blot analysis
Homo sapiens [13] = species: Homo sapiens; assay: Inhibition of cell migration of human pulmonary smooth muscle cells by standard scratch assay; type: functional
Homo sapiens [14] = species: Homo sapiens; assay: Inhibition of cell proliferation of human pulmonary smooth muscle cells incubated up to 120 hrs; type: functional
Mus musculus [15] = assay: Inhibition of right ventricular systolic pressure increase in […] mouse hypoxia/Sugen pre-clinical model of pulmonary hypertension at 80 mg/kg dosed daily for 20 days starting 8 days post experimental initiation; type: functional, organism-based
Mus musculus [16] = assay: Effect on systemic pressure in […] mouse hypoxia/Sugen pre-clinical model of pulmonary hypertension at 80 mg/kg dosed daily for 20 days starting immediately post experimental initiation; type: ADME, organism-based; conditions: in vivo, 480 h
Mus musculus [17] = assay: Effect on systemic pressure in […] mouse hypoxia/Sugen pre-clinical model of pulmonary hypertension at 80 mg/kg dosed daily for 20 days starting 8 days post experimental initiation; type: functional, organism-based

inhibition (Homo sapiens [1]) | inhibition (Homo sapiens [5]) | inhibition (Homo sapiens [6]) | inhibition (Homo sapiens [7]) | inhibition (Homo sapiens [8]) | inhibition (Homo sapiens [9]) | inhibition (Homo sapiens [10]) | inhibition (Homo sapiens [11]) | inhibition (Homo sapiens [12]) | SMILES | Activity [2] | inhibition (Mus musculus [3]) | inhibition (Homo sapiens [4]) | inhibition (Homo sapiens [13]) | inhibition (Homo sapiens [14]) | inhibition (Mus musculus [15]) | Activity (Mus musculus [16]) | Activity (Mus musculus [17])
Active |  |  |  |  |  |  |  |  | COc1cc(Nc2ncc3ccn(-c4cccc(CCC#N)c4)c3n2)cc(OC)c1OC | Non-Toxic |  |  |  |  |  |  | 
 | Active | Active | Active | Active | Active | Active | Active | Active | O=C(O)c1ccc2c(c1)nc(Nc1cccc(Cl)c1)c1ccncc12 [SILMITASERTIB] |  | Active | Dose-dependent effect | Dose-dependent effect | Dose-dependent effect | Active | Non-Toxic | inactive

From ChEMBL document CHEMBL4418484, “Inhibitors of nkx2.5 for vascular remodelling” (2015)
